The text below walks through data of publication PMC7951137 (ACS chemical neuroscience, 2021).

Where two headings read alike, the source gives them in different places. [ ]: non-standard residue; d: D form.

In one assay the target is D189N hMC4R (Homo sapiens, UniProt P32245, D189N). Description: cAMP AlphaScreen agonist / inverse agonist assay. Conditions: for Inverse agonist percent decrease from basal activity: D189N hMC4R. It is filed as cell-based. In general terms: Bead proximity is the source of the signal in Alpha formats.
Chain of D189N hMC4R (P32245 whole entry D189N): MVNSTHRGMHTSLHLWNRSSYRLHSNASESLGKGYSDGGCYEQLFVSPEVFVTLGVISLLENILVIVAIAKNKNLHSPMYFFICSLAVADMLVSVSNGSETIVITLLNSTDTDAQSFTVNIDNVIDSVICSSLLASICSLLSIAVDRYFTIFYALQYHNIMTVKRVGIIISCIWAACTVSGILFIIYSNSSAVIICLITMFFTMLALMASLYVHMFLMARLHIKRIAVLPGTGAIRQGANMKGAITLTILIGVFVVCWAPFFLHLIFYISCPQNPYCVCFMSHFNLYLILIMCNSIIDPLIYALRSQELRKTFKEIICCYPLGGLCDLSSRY
Assay [1] concerns the target T1, D189Q hMC4R (Homo sapiens, UniProt P32245, D189Q). Description: cAMP AlphaScreen agonist / inverse agonist assay. It is filed as cell-based. Conditions: for Inverse agonist percent decrease from basal activity: D189Q hMC4R.
Assay [2] has as its target T2, wildtype hMC4R (Homo sapiens, UniProt P32245). Description: cAMP AlphaScreen antagonist assay. It is filed as cell-based.
Another assay addresses D189K hMC4R (Homo sapiens, UniProt P32245, D189K). Nature of the assay: cAMP AlphaScreen antagonist assay. The assay is classed as cell-based.
For a further assay, the target named is D189A hMC4R (Homo sapiens, UniProt P32245, D189A). Nature of the assay: cAMP AlphaScreen antagonist assay. The assay is classed as cell-based.
Chain of D189A hMC4R (P32245 whole entry D189A): as the sequence (P32245 whole entry D189N) above, with N189A counted along it
For another assay, the target named is D189E hMC4R (Homo sapiens, UniProt P32245, D189E). Nature of the assay: cAMP AlphaScreen agonist / inverse agonist assay. Conditions: for Inverse agonist percent decrease from basal activity: D189E hMC4R. The assay is classed as cell-based.
Chain of D189E hMC4R (P32245 whole entry D189E): as the sequence (P32245 whole entry D189N) above, with N189E counted along it
A further assay has as its target D189S hMC4R (Homo sapiens, UniProt P32245, D189S). Nature of the assay: cAMP AlphaScreen agonist / inverse agonist assay. The assay is classed as cell-based. Conditions: for Inverse agonist percent decrease from basal activity: D189S hMC4R.
For assay [3], the target named is T1, D189Q hMC4R. Description: cAMP AlphaScreen antagonist assay. The assay is classed as cell-based.
Assay [4] concerns the target T2, wildtype hMC4R. Nature of the assay: cAMP AlphaScreen agonist / inverse agonist assay. Conditions: WT hMC4R; basal = signal at 10^−12 M. The assay is classed as cell-based.
Assay [5] has as its target T3, human melanocortin-4 receptor (hMC4R), wild type, N-terminal FLAG-tagged (human, UniProt P32245 1-332). Nature of the assay: radioligand binding.
In assay [6] the target is T3, human melanocortin-4 receptor (hMC4R), …. Nature of the assay: radioligand binding. The source holds these as a separate data set.

Chain of D189K hMC4R (P32245 whole entry D189K): as the sequence (P32245 whole entry D189N) above, with N189K counted along it
Chain of D189S hMC4R (P32245 whole entry D189S): as the sequence (P32245 whole entry D189N) above, with N189S counted along it
T1 sequence (P32245 whole entry D189Q): as the sequence (P32245 whole entry D189N) above, with N189Q counted along it
T2 sequence (P32245 whole entry): as the sequence (P32245 whole entry D189N) above, with N189D counted along it
T3 sequence (P32245 whole entry): as the sequence (P32245 whole entry D189N) above, with N189D counted along it

The term EC50 denotes the concentration at which the effect is half-maximal. High values mean lower potency in that assay, low ones higher potency in that assay. One may read the Kb as the equilibrium dissociation constant of an antagonist, usually derived from a functional assay. With `C[C@@H]1NC(=O)[C@H](CO)NC(=O)[C@H](Cc2ccccc2)NC(=O)[C@H](Cc2ccccc2)NC(=O)[C@H](CCCNC(=N)N)NC(=O)[C@@H]2CCCN2C(=O)[C@H]2CCCN2C(=O)[C@H](Cc2ccccc2)NC1=O` [MDE3–85c, c[Pro-Arg-Phe-Phe-Ser-Ala-Phe-DPro]], the EC50 at D189N hMC4R came to 100 ± 40 nM; at D189E hMC4R it was 11 ± 4 nM; on D189S hMC4R, 600 ± 400 nM. Further, the “Inverse agonist percent decrease from basal activity” value is given as −20% at D189N hMC4R, −35% at D189Q hMC4R [1], −25% at D189E hMC4R and −25% at D189S hMC4R. In addition, the Kb on wildtype hMC4R [2] was 10 nM; at D189K hMC4R, 501 nM; at D189A hMC4R, 1000 nM; at D189Q hMC4R [3] it was 158 nM. At wildtype hMC4R [4], the “Inverse agonist percent decrease from basal signal” value is on record as −25%.
On to `CC[C@@H]1NC(=O)[C@H](Cc2ccccc2)NC(=O)[C@H](Cc2ccccc2)NC(=O)[C@H](CCCNC(=N)N)NC(=O)[C@@H]2CCCN2C(=O)[C@H]2CCCN2C(=O)[C@H](Cc2ccccc2)NC(=O)[C@H](C)NC1=O` [MDE3–119-2c, c[Pro-Arg-Phe-Phe-Abu-Ala-Phe-DPro]], for which the “Inverse agonist percent decrease from basal signal” value at wildtype hMC4R [4] is on record as −15%.
Take `C[C@@H]1NC(=O)[C@H](CCC(=O)O)NC(=O)[C@H](Cc2ccccc2)NC(=O)[C@H](Cc2ccccc2)NC(=O)[C@H](CCCNC(=N)N)NC(=O)[C@@H]2CCCN2C(=O)[C@H]2CCCN2C(=O)[C@H](Cc2ccccc2)NC1=O` [MDE3–119-5c, c[Pro-Arg-Phe-Phe-Glu-Ala-Phe-DPro]]: the figures for the EC50 at D189N hMC4R, at D189Q hMC4R [1] and on D189E hMC4R were 3000 nM, 7000 nM and 1100 nM, respectively. The “Inverse agonist percent decrease from basal activity” value on D189N hMC4R is −5%; at D189Q hMC4R [1], −40%; at D189E hMC4R, −40%. The Kb on wildtype hMC4R [2] was 100 nM; at D189K hMC4R, above 3160 nM; at D189A hMC4R it was above 3160 nM; on D189Q hMC4R [3], 2000 nM. Besides, the “Inverse agonist percent decrease from basal signal” value on wildtype hMC4R [4] is listed as −35%.
Consider `C[C@@H]1NC(=O)[C@@H](CN)NC(=O)[C@H](Cc2ccccc2)NC(=O)[C@H](Cc2ccccc2)NC(=O)[C@H](CCCNC(=N)N)NC(=O)[C@@H]2CCCN2C(=O)[C@H]2CCCN2C(=O)[C@H](Cc2ccccc2)NC1=O` [MDE3–119-7c, c[Pro-Arg-Phe-Phe-DDap-Ala-Phe-DPro]], for which the “Inverse agonist percent decrease from basal activity” value on D189N hMC4R is given as −15%; on D189Q hMC4R [1], −40%; on D189E hMC4R, −35%; at D189S hMC4R it was −30%. Also, the “Inverse agonist percent decrease from basal signal” value at wildtype hMC4R [4] was −30%.
With `C[C@@H]1NC(=O)[C@H](CN)NC(=O)[C@H](Cc2ccccc2)NC(=O)[C@H](Cc2ccccc2)NC(=O)[C@H](CCCNC(=N)N)NC(=O)[C@@H]2CCCN2C(=O)[C@H]2CCCN2C(=O)[C@H](Cc2ccccc2)NC1=O` [MDE3–119-8c, c[Pro-Arg-Phe-Phe-Dap-Ala-Phe-DPro]], the “Inverse agonist percent decrease from basal activity” value on D189N hMC4R is reported as −15%; at D189Q hMC4R [1], −45%; at D189E hMC4R, −55%; on D189S hMC4R, −35%. Moreover, the “Inverse agonist percent decrease from basal signal” value at wildtype hMC4R [4] was −50%.
On to `C[C@@H]1NC(=O)[C@H](C)NC(=O)[C@H](Cc2ccccc2)NC(=O)[C@H](Cc2ccccc2)NC(=O)[C@H](CCCNC(=N)N)NC(=O)[C@@H]2CCCN2C(=O)[C@H]2CCCN2C(=O)[C@H](Cc2ccccc2)NC1=O` [MDE3–154c, c[Pro-Arg-Phe-Phe-Ala-Ala-Phe-DPro]], for which the “Inverse agonist percent decrease from basal activity” value on D189Q hMC4R [1] and on D189E hMC4R was −25% in each case. For the same molecule, the Kb is 794 nM on D189K hMC4R, 2510 nM on D189A hMC4R and 251 nM at D189Q hMC4R [3]. The molecule further came in with an EC50 on D189E hMC4R of 16 ± 2 nM. The “Inverse agonist percent decrease from basal signal” value on wildtype hMC4R [4] is reported as −35%.
On to `C[C@@H]1NC(=O)[C@H](CC(N)=O)NC(=O)[C@H](Cc2ccccc2)NC(=O)[C@H](Cc2ccccc2)NC(=O)[C@H](CCCNC(=N)N)NC(=O)[C@@H]2CCCN2C(=O)[C@H]2CCCN2C(=O)[C@H](Cc2ccccc2)NC1=O` [MDE5–108-10c, c[Pro-Arg-Phe-Phe-Asn-Ala-Phe-DPro]], for which the “Inverse agonist percent decrease from basal activity” value was −20% at D189N hMC4R, −45% at D189Q hMC4R [1], −25% at D189E hMC4R and −20% on D189S hMC4R. On wildtype hMC4R [4], the “Inverse agonist percent decrease from basal signal” value was −30%.
Take “c[Pro-Arg-Phe-Phe-His-Ala-Phe-DPro] [MDE3–119-13c]”: the entries for the “Inverse agonist percent decrease from basal activity” value at D189Q hMC4R [1] and at D189E hMC4R were −30% and −15%, respectively. The “Inverse agonist percent decrease from basal signal” value on wildtype hMC4R [4] was −30%.
The IC50 is the midpoint of a concentration-inhibition curve. Lower therefore signals greater potency. Take cyclo(PRFFDAF[dP]) [MDE3–119-4c]: the figures for the IC50 in assay [5] and in [6] were 3600 nM and 1300 nM, respectively.
In the case of cyclo(PRFFEAF[dP]) [MDE3–119-5c], the IC50 in assay [5] was determined as 2500 nM; in assay [6], 1400 nM.
